assay: logP by HPLC on reversed-phase column (C 18), EEC Directive 79/831 Annex V.A8; assay type: physicochemical; settings: 40° C., 0.1% aqueous formic acid and acetonitrile, linear gradient 10% to 90% acetonitrile
Description: In the following table, the logP values were determined in accordance with EEC Directive 79/831 Annex V.A8 by HPLC (High Performance Liquid Chromatography) on a reversed-phase column (C 18), using the method described below: Temperature: 40° C.; Mobile phases: 0.1% aqueous formic acid and acetonitrile linear gradient from 10% acetonitrile to 90% acetonitrile. Calibration was carried out using unbranched alkan-2-ones (comprising 3 to 16 carbon atoms) with known logP values (determination of the logP values by the retention times using linear interpolation between two successive alkanones).

Structure (SMILES) | LogP
Cc1nn(C)c(F)c1C(=O)N(Cc1ccc(Br)c2cccnc12)C1CC1 [Example 167] | 2.9
COc1ccc2ccc(OC)c(CN(C(=O)c3c(C)nn(C)c3F)C3CC3)c2c1 [Example 222] | 2.96

same assay, conditions: 40° C., 0.1% aqueous formic acid and acetonitrile, linear gradient from 10% to 90% acetonitrile

Structure (SMILES) | LogP
Cn1cc(C(=O)N(Cc2ccc(Br)c3ccccc23)C2CC2)c(C(F)F)n1 [Example 55] | 3.69
COC(=O)C(c1cccc2ccccc12)N(C(=O)c1c(C)nn(C)c1F)C1CC1 (stereo not shown) [Example 63] | 2.92
Cc1nn(C)c(F)c1C(=S)N(Cc1ccc2ccccc2c1Br)C1CC1 [Example 25] | 4.39
Cc1nn(C)c(F)c1C(=O)N(Cc1ccc(Br)c2ccccc12)C1CC1 [Example 54] | 3.62
Cn1cc(C(=O)N(Cc2ccc3ccccc3c2Br)C2CC2)c(C(F)F)n1 [Example 26] | 3.68
COC(=O)C(c1cccc2ccccc12)N(C(=O)c1cn(C)nc1C(F)F)C1CC1 (stereo not shown) [Example 69] | 3.02
Cc1ccc2ccccc2c1CN(C(=O)c1cn(C)nc1C(F)F)C1CC1 [Example 40] | 3.25
COc1nn(C)cc1C(=O)N(C1CC1)C(C)c1cccc2ccccc12 (stereo not shown) [Example 75] | 2.86
Cc1cc(C(=O)N(C2CC2)C(C)c2ccc(Br)c3ccccc23)c(C)o1 (stereo not shown) [Example 60] | 5.2
COc1nn(C)cc1C(=S)N(Cc1ccc2ccccc2c1Br)C1CC1 [Example 28] | 4.25
COc1nn(C)cc1C(=O)N(Cc1ccc2ccccc2c1Br)C1CC1 [Example 27] | 3.24
